Measured values reported in publication PMC9523135, “Apamin structure and pharmacology revisited” (Frontiers in Pharmacology, 2022).
Converted amounts (≈) assume the structure as drawn. Read-outs that look alike come from different tables or passages of the source.

Assays:
KCa2 = details: Kalium database; ref Kuzmenkov et al., 2016; Tabakmakher et al., 2019; cited from earlier work
Description: (§1) According to the Kalium database (https://kaliumdb.org) ([Kuzmenkov et al., 2016]; [Tabakmakher et al., 2019]), six of these substances were identified in scorpion venom (AmP05, maurotoxin, Pi-1, scyllatoxin, tamapin, and Ts9). […] Intere ...

KCa2.2 = details: cited from earlier work
Description: as §1

KCa2.1 = molecular target: T1, KCa2.1 (Homo sapiens, UniProt Q92952); assay: Patch-clamp, HEK293 cells expressing hKCa2.1 (SK1); assay type: cell-based; details: voltage ramps –120 to 40 mV, slope conductance at –80 mV, 1 μM free Ca^2+ internal; Hill fit, n ≥ 5; 95% CI 3.3–5.0 nM
T1 construct: expressed in transfected cells
T1 sequence (Q92952 whole entry): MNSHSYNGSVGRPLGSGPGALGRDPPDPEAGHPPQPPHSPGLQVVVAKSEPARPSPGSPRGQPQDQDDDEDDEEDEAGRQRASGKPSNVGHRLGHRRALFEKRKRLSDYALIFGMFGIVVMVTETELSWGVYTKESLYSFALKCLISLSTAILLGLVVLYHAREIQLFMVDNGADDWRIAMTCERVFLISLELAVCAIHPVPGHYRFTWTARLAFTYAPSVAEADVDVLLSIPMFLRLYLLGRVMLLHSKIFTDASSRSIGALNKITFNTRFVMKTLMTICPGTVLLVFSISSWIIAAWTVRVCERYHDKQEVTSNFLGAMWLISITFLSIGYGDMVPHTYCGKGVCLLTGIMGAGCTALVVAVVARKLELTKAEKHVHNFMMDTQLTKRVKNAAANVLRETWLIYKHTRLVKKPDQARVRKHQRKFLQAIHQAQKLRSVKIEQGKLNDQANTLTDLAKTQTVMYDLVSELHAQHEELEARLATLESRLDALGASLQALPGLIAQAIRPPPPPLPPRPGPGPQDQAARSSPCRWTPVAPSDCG
Protocol: (§2) HEK293 cells stably expressing hKCa1.1 (BK, GenBank accession number: NM_002247), hKCa2.1 (SK1, NM_002248), and hKCa3.1 (IK, AH009923) or COS7 cells stably expressing hKCa2.3 (SK3, AJ251016) were generated and cultured as previously described ([Sankaranarayanan et al., 2009]). HEK293 cells stably expressing rKCa2.2 (SK2, NM_019314) were a gift from Dr. Mio Zhang (Chapman University, Irvine).
(§3) All experiments were conducted with an EPC-10 amplifier (HEKA) in the whole-cell configuration with a holding potential of –80 mV. Pipette resistances averaged around 2.5 MΩ. […] Free Ca^2+ concentrations were calculated with MaxChelator (developed by Chris Patton, Stanford University) assuming a temperature of 25°C, pH 7.2, and ionic strength of 160 mM. […] Please note that the provided concentrations are what was weighed in to achieve an initially hyperosmolar solution that was diluted with water to 310 mOsm for the internal and 315 mOsm for the external solution as measured with a VAPRO Vapor pressure osmometer (Wescor). […]
(§4) KCa2 and KCa3.1 currents were elicited by 200-ms voltage ramps from –120 to 40 mV applied every 10 s, and the fold decrease of slope conductance at –80 mV was taken as a measure of apamin-induced channel inhibition. […] KCa1.1 channel activity was recorded with a step protocol, in which cells were stepped to +40 mV for 100 ms at 30-s intervals. […]

KV11.1 = assay: Two-electrode voltage-clamp, X. laevis oocytes, hKV11.1 (hERG); assay type: cell-based, human; design: key to effect on current: N.E.: no effect at 5 μM concentration; details: 5 μM apamin, n = 5
Protocol: Linearized plasmids bearing the ion channel genes were transcribed using the mMESSAGE mMACHINE SP6 or T7 transcription kits (Ambion) to prepare the respective cRNA. The harvesting of stage V–VI oocytes from anaesthetized female X. laevis frogs was described previously ([Liman et al., 1992]; [Peigneur et al., 2021]). Oocytes were injected with 50 nL of cRNA at a concentration of 1 ng nl^−1 using a microinjector (Drummond Scientific). The oocytes were incubated at 16°C in ND96 solution containing (in mM): NaCl, 96; KCl, 2; CaCl2, 1.8; MgCl2, 2; and HEPES, 5 (pH 7.4), supplemented with 50 mg l^−1 gentamicin sulfate.
Recordings were performed at room temperature (18°C–22°C) using a Geneclamp 500 amplifier (Molecular Devices) controlled by a pClamp data acquisition system (Axon Instruments). Whole-cell currents from oocytes were recorded 1–4 days after cRNA injection. Bath solution composition was ND96, or HK containing (in mM): NaCl, 2; KCl, 96; CaCl2, 1.8; MgCl2, 2; and HEPES, 5 (pH 7.4). Voltage and current electrodes were filled with 3 M KCl. […]
Currents were evoked by a 100 ms (NaV) or 500 ms (KV) depolarization to the voltage corresponding to the maximal activation of the channels in control conditions from a holding potential of −90 mV. […] TRP currents were measured in ND96 at −90 mV during 400 s. […] Peak current amplitude was measured prior to and following the application of the peptide. […]

mice = details: cited from earlier work
Description: The symptoms are apparently of central origin because the toxicity increases by a factor of 1,000–10,000 and the progression of poisoning is faster in case of i.c.v. injection, but the clinical picture stays the same ([Habermann, 1977], [Habermann, 1984]).

KCa3.1 = assay: Patch-clamp, HEK293 cells expressing hKCa3.1 (IK); assay type: cell-based, human; details: 1 µM TRAM-34
Protocol: as §2, §3, §4

E. faecalis = assay: Antimicrobial assay, microtitre broth dilution, E. faecalis; assay type: cell-based, Enterococcus faecalis ATCC 29212; details: lowest concentration causing 100% growth inhibition; 24 h, 37°C; n = 5
Protocol: Apamin was tested against Gram-positive (Enterococcus faecalis ATCC 29212, Staphylococcus aureus subsp. aureus ATCC 29213) and Gram-negative bacteria (Escherichia coli ATCC 25922, Pseudomonas aeruginosa ATCC 27853) following the previously described modification of the microtitre broth dilution method ([Vassilevski et al., 2010]). Those bacterial strains were also subjected to the treatment by melittin in the same concentration range to serve as a positive control.
Briefly, bacteria were cultured in a low-salt LB medium. The two-fold microtitre broth dilution assay was carried out in 96-well sterile plates in a final volume of 100 μL. Mid-exponential-phase cultures were diluted to a final concentration of 10^5 colony-forming units·ml^−1. Pure peptides were dissolved in 10 μL of water and added to 90 μL of the bacterial dilution. The samples, a non-treated control and a sterility control were tested in five independent experiments (n = 5). The microtitre plates were incubated for 24 h at 37°C, and growth inhibition was determined by measuring the absorbance at 620 nm. Minimum inhibitory concentration (MIC) is expressed as the lowest concentration of peptide that caused 100% bacterial growth inhibition.

For “maurotoxin (VSCTGSKDCYAPCRKQTGCPNAKCINKSCKCYGC; UniProt P80719 1-34, looked up)”, the “affinity on KCa2” value (KCa2) is listed as “high (nanomolar) affinity”.

For “scyllatoxin: scorpion toxin from Leiurus quinquestriatus hebraeus (AFCNLRMCQLSCRSLGLLGKCIGDKCECVKH; UniProt P16341 1-31, looked up)”, the “IC50 range in words” value (KCa2.2; ref Shakkottai et al., 2001) is given as “subnanomolar range” and the “affinity on KCa2” value (KCa2) is given as “high (nanomolar) affinity”.

With `CC(C)C[C@@H]1NC(=O)[C@H](C)NC(=O)[C@H]([C@@H](C)O)NC(=O)[C@H](CCC(=O)O)NC(=O)[C@@H]2CCCN2C(=O)[C@H](C)NC(=O)[C@H](CCCCN)NC(=O)[C@@H]2CSSC[C@@H](C(=O)N[C@@H](CCC(N)=O)C(=O)N[C@@H](CCC(N)=O)C(=O)N[C@@H](Cc3cnc[nH]3)C(N)=O)NC(=O)[C@H](CCCNC(=N)N)NC(=O)[C@H](CCCNC(=N)N)NC(=O)[C@H](C)NC(=O)[C@H](CSSC[C@H](N)C(=O)N[C@@H](CC(N)=O)C(=O)N2)NC1=O` [apamin] the IC50 (KCa2.1) was 4.1 nM, the “current ratio (Iapamin/Icontrol)” value (KV11.1; mean ± SD) was 1.07 ± 0.06 and the effect on current (KV11.1) was “N.E”. For the same molecule, the “factor of toxicity increase on i.c.v. injection” value (mice; i.c.v. compared with i.v., ref Habermann, 1977, 1984) was 1,000–10,000, the LD50 (mice; i.v., ref Habermann and Reiz, 1965, 1972) was “≈ 4 mg kg^−1” and the “symptoms when injected into mice” value (mice; ref Habermann and Reiz, 1965, 1972) was “muscle spasms, jerks, and convulsions”.

For “tamapin: scorpion toxin from Mesobuthus tamulus (AFCNLRRCELSCRSLGLLGKCIGEECKCVPY; UniProt P59869 1-31, looked up)”, the “IC50 range in words” value (KCa2.2; ref Pedarzani et al., 2002) is given as “subnanomolar range” and the “affinity on KCa2” value (KCa2) is given as “high (nanomolar) affinity”.

In the case of `Clc1ccccc1C(c1ccccc1)(c1ccccc1)n1cccn1` [TRAM-34], the “block of KCa3.1 currents” value (KCa3.1) is reported as “potently blocked”.

`CC[C@H](C)[C@H](NC(=O)CN)C(=O)NCC(=O)N[C@@H](C)C(=O)N[C@H](C(=O)N[C@@H](CC(C)C)C(=O)N[C@@H](CCCCN)C(=O)N[C@H](C(=O)N[C@@H](CC(C)C)C(=O)N[C@H](C(=O)N[C@H](C(=O)NCC(=O)N[C@@H](CC(C)C)C(=O)N1CCC[C@H]1C(=O)N[C@@H](C)C(=O)N[C@@H](CC(C)C)C(=O)N[C@H](C(=O)N[C@@H](CO)C(=O)N[C@@H](Cc1c[nH]c2ccccc12)C(=O)N[C@H](C(=O)N[C@@H](CCCCN)C(=O)N[C@@H](CCCNC(=N)N)C(=O)N[C@@H](CCCCN)C(=O)N[C@@H](CCCNC(=N)N)C(=O)N[C@@H](CCC(N)=O)C(=O)N[C@@H](CCC(N)=O)C(N)=O)[C@@H](C)CC)[C@@H](C)CC)[C@@H](C)O)[C@@H](C)O)C(C)C)C(C)C` [Melittin] showed an MIC (E. faecalis) of 0.5 µM (≈ 1.42 µg/mL).
